In US11304963B2, “Methods of medical treatment with SUR1-TRPM4 channel inhibitors” (BIOGEN CHESAPEAKE LLC, priority 2016, dated 2022):

Assays:
[1] = tested on: cerebral edema-related side effects; experiment: Clinical trial of glyburide in patients undergoing CAR-T therapy, surgical excision of a brain tumor, and/or diagnosed with cerebral edema; format: in vivo, human; settings: 0.5-3.0 mg/day
Protocol: (§1) In one arm, glyburide is administered as a bolus followed by continuous infusion.
(§2) In a second arm, glyburide is administered via a transdermal patch or gel.
(§3) In a third arm, glyburide is administered via injection, e.g., intravenous infusion.
(§4) In a fourth arm, glyburide is administered orally.
The study duration is days up to weeks.
Plasma levels of glyburide are determined daily.
The control group is matched for age, gender, and pre-operative stage.
(§5) Each patient is monitored via blood sampling and MRI. A diagnostic contrast-enhanced MRI of the brain is performed prior to inclusion in the study.
(§6) The following comparisons are made:
(§7) Occurrence of one or more cerebral edema-related side effects: • Headache • Neck pain or stiffness • Nausea or vomiting • Dizziness • Irregular breathing • Vision loss or changes • Memory loss • Inability to walk • Difficulty speaking • Stupor • Seizures • Loss of consciousness

[2] = tested on: cerebral edema-related side effects; experiment: Clinical trial of glyburide in patients with brain tumors or metastasis undergoing radiation therapy; format: in vivo, human; settings: 0.5-3.0 mg/day
Protocol: as §1, §2, §3, §4
The study duration is weeks to months.
Plasma levels of glyburide are determined weekly.
The control group is matched for age, gender, and pre-radiation therapy stage.
as §5, §6, §7

[3] = tested on: migraine; experiment: Clinical trial of glyburide for the prevention of migraine; format: in vivo, human; settings: patients with a history of migraine; after 12 weeks of treatment; 0.5-3.0 mg/day
Protocol: This is a randomized, double-blind, placebo-controlled, parallel Group, dose-ranging study to investigate the efficacy, safety and tolerability of glyburide for the prevention of migraine.
as §1, §2, §3, §4
The study duration is several days up to one week.
Number of migraine headache days during weeks 9-12 of the treatment period.
Change in Scores From Completeness of Response Survey (CORS) (Time Frame: Visit 1 (screening) and Visit 2 (study completion following 2-month treatment period)).
CORS scores for Pain (0-4), Associated Symptoms (0-4), Limbic/Affective Symptoms (0-5), and Speed of Return to Functionality (1-5), represent outcome measures that are relevant to patients. Higher scores represent better treatment efficacy.
The analysis compares CORS scores for usual treatment (pre-study) versus glyburide (study medication).

[4] = Plasma pharmacokinetics of glyburide, bolus injection followed by 72 hours continuous infusion, healthy adult subjects; settings: for Metabolite exposure versus administered dose of RP-1127: 0.4 mg/day vs 3.0 mg/day; for Metabolite level as share of the glyburide steady-state concentration: on average; for Average plasma metabolite concentration: through 72.5 hours after the initial bolus injection
Protocol: The two groups are referred to as the 0.4 mg/day group and the 3.0 mg/day group, respectively.

[5] = tested on: subjects with LHI; experiment: Mortality study in 77 subjects with LHI given Cirara and/or tPA; format: in vivo, human; settings: Group 1: tPA and a placebo; 22 subjects with LHI; tPA within 4.5 hours of stroke onset
Protocol: As used herein, the term “placebo” refers to an ostensibly pharmaceutical formulation with no pharmaceutically active agent, or lacks the particular pharmaceutical agent of interest in a given study. In the examples disclosed herein, the placebo is lacking the SUR1-TRPM4 channel inhibitor. As used herein, the term “Cirara” refers to a commercially available intravenous formulation of glyburide. In this example, tPA was administered in accordance with current clinical guidelines for managing ischemic stroke within 4.5 hours of stroke onset (Jauch et al. 2013).
The adverse outcome examined in the study was death. This was for exemplary purposes only and is not intended to be limiting.

| Compound | Cerebral edema-related side effects compared with the control group [1] | Cerebral edema-related side effects compared with the control group [2] | Migraine outcome measures compared with the placebo group [3] | Time plasma metabolite levels first detected after the initial bolus RP-1127 IV injection ([4]; 0.4 mg/day dose group) [h] | Metabolite exposure versus administered dose of RP-1127 [4] | Time plasma metabolite levels first detected after the initial bolus RP-1127 IV injection ([4]; 3.0 mg/day dose group) [h] | Metabolite level as share of the glyburide steady-state concentration [4] [%] | Average plasma metabolite concentration ([4]; 0.4 mg/day dose group) [ng/mL] | Average plasma metabolite concentration ([4]; 3.0 mg/day dose group) [ng/mL] | Mortality Rate [5] [%] |
| --- | --- | --- | --- | --- | --- | --- | --- | --- | --- | --- |
| COc1ccc(Cl)cc1C(=O)NCCc1ccc(S(=O)(=O)NC(=O)NC2CCCCC2)cc1 [Glyburide, glyburide] | significantly reduced or inhibited | significantly reduced or inhibited | significantly improved | – | – | – | – | – | – | – |
| COc1ccc(Cl)cc1C(=O)NCCc1ccc(S(=O)(=O)NC(=O)NC2CCC(O)CC2)cc1 (centres unmarked) [M1] | – | – | – | 1 | approximately proportional to the administered dose | 0.167 | 18 | – | – | – |
| COc1ccc(Cl)cc1C(=O)NCCc1ccc(S(=O)(=O)NC(=O)NC2CCCC(O)C2)cc1 (centres unmarked) [M2] | – | – | – | 2 | approximately proportional to the administered dose | 0.333 | 6 | ≤ 0.19 | ≤ 1.4 | – |
| tPA: Tissue plasminogen activator, a class of strong blood clot dissolving medicines | – | – | – | – | – | – | – | – | – | 41 |
